# From patent publication US9695155B2, “Herbicidal substituted pyrimidinyloxy benzene compounds” (E. I. DU PONT DE NEMOURS AND COMPANY, priority 2013, dated 2017)
# Experiments:
# giant foxtail = assay: Test C preemergence; type: in vivo, Setaria faberii; settings: for Foxtail, Giant plant response rating: preemergence
# In short: (§1)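 Visual injury score versus untreated controls, 0 = no effect, 100 = complete control, taken 13 to 15 days after treatment in the greenhouse. Pre-emergence pots held loam/sand; post-emergence plants grew in sphagnum peat/vermiculite mix and were sprayed at the 1- to 4-leaf stage.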
# Italian ryegrass [1] = assay: Test C preemergence; type: in vivo, Lolium multiflorum; settings: for Ryegrass, Italian plant response rating: preemergence
# In short: as §1
# johnsongrass = assay: Test C preemergence; type: in vivo, Sorghum halepense; settings: for Johnsongrass plant response rating: preemergence
# In short: as §1
# oilseed rape = assay: Test C preemergence; type: in vivo, Brassica napus; settings: for Oilseed Rape plant response rating: preemergence
# In short: as §1
# galium = assay: Test A postemergence; type: in vivo, Galium aparine; settings: 0 to 100 scale where 0 is no effect and 100 is complete control
# In short: (§2)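 Injury scores run from 0, no effect, to 100, complete control, judged by eye against untreated plants roughly 10 days after treatment. Chemicals carried a surfactant in a non-phytotoxic solvent and went onto loam–sand soil preemergence or onto one- to two-leaf seedlings postemergence.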
# large (Lg) crabgrass = assay: Test C preemergence; type: in vivo, Digitaria sanguinalis; settings: for Crabgrass, Large plant response rating: preemergence
# In short: as §1
# kochia = assay: Test A postemergence; type: in vivo, Kochia scoparia; settings: 0 to 100 scale where 0 is no effect and 100 is complete control
# In short: as §2
# blackgrass [2] = assay: Test C preemergence; type: in vivo, Alopecurus myosuroides; settings: for Blackgrass plant response rating: preemergence
# In short: as §1
# waterhemp = assay: Test C preemergence; type: in vivo, Amaranthus rudis; settings: for Waterhemp plant response rating: preemergence
# In short: as §1
# velvetleaf = assay: Test C preemergence; type: in vivo, Abutilon theophrasti; settings: for Velvetleaf plant response rating: preemergence
# In short: as §1
# morningglory = assay: Test C preemergence; type: in vivo, Ipomoea coccinea; settings: for Morningglory plant response rating: preemergence
# In short: as §1
# lambsquarters = assay: Test C preemergence; type: in vivo, Chenopodium album; settings: for Lambsquarters plant response rating: preemergence
# In short: as §1
# ragweed = assay: Test A postemergence; type: in vivo, Ambrosia elatior; settings: 0 to 100 scale where 0 is no effect and 100 is complete control
# In short: as §2
# pigweed = assay: Test C preemergence; type: in vivo, Amaranthus retroflexus; settings: for Pigweed plant response rating: preemergence
# In short: as §1
# barnyardgrass = assay: Test C preemergence; type: in vivo, Echinochloa crus-galli; settings: for Barnyardgrass plant response rating: preemergence
# In short: as §1
# yellow nutsedge = assay: Test C preemergence; type: in vivo, Cyperus esculentus; settings: for Nutsedge, Yellow plant response rating: preemergence
# In short: as §1
# blackgrass [3] = assay: Test A postemergence; type: in vivo, Alopecurus myosuroides; settings: 0 to 100 scale where 0 is no effect and 100 is complete control
# In short: as §2
# Italian ryegrass [4] = assay: Test A postemergence; type: in vivo, Lolium multiflorum; settings: 0 to 100 scale where 0 is no effect and 100 is complete control
# In short: as §2
# soybean = assay: Test C preemergence; type: in vivo, Glycine max; settings: for Soybean plant response rating: preemergence
# In short: as §1
# [5] = 8 g ai/ha, scale 0 to 100 (0 no effect, 100 complete control)
# [6] = 16 g ai/ha, scale 0 to 100 (0 no effect, 100 complete control)
# [7] = 62 g ai/ha, scale 0 (no effect) to 100 (complete control)
# [8] = Preemergence, 31 g ai/ha, scale 0 to 100, 0 no effect, 100 complete control
compound,measurement,setting,value
N#Cc1cnn(-c2c(C#N)cccc2Oc2ncc(Br)cn2)c1 [Compound 135],"Foxtail, Giant plant response rating",giant foxtail; [5],0
same,"Foxtail, Giant plant response rating",giant foxtail; [6],5
same,"Foxtail, Giant plant response rating",giant foxtail; [7],70
same,"Plant response rating, Foxtail, Giant",giant foxtail; [8],70
same,"Ryegrass, Italian plant response rating",Italian ryegrass [1]; [5],0
same,"Ryegrass, Italian plant response rating",Italian ryegrass [1]; [6],0
same,"Ryegrass, Italian plant response rating",Italian ryegrass [1]; [7],10
same,"Plant response rating, Ryegrass, Italian",Italian ryegrass [1]; [8],5
same,Johnsongrass plant response rating,johnsongrass; [5],0
same,Johnsongrass plant response rating,johnsongrass; [6],0
same,Johnsongrass plant response rating,johnsongrass; [7],45
same,"Plant response rating, Johnsongrass",johnsongrass; [8],5
same,Oilseed Rape plant response rating,oilseed rape; [5],30
same,Oilseed Rape plant response rating,oilseed rape; [6],55
same,Oilseed Rape plant response rating,oilseed rape; [7],95
same,"Plant response rating, Oilseed Rape",oilseed rape; [8],95
same,Galium plant response rating,galium; 125 g ai/ha,60
same,"Plant response rating, Galium",galium; 500 g ai/ha,90
same,"Crabgrass, Large plant response rating",large (Lg) crabgrass; [5],45
same,"Crabgrass, Large plant response rating",large (Lg) crabgrass; [6],60
same,"Crabgrass, Large plant response rating",large (Lg) crabgrass; [7],100
same,"Plant response rating, Crabgrass, Large",large (Lg) crabgrass; [8],100
same,Kochia plant response rating,kochia; 125 g ai/ha,20
same,"Plant response rating, Kochia",kochia; 500 g ai/ha,70
same,Blackgrass plant response rating,blackgrass [2]; [5],0
same,Blackgrass plant response rating,blackgrass [2]; [6],0
same,Blackgrass plant response rating,blackgrass [2]; [7],20
same,"Plant response rating, Blackgrass",blackgrass [2]; [8],5
same,Waterhemp plant response rating,waterhemp; [5],55
same,Waterhemp plant response rating,waterhemp; [6],75
same,Waterhemp plant response rating,waterhemp; [7],100
same,"Plant response rating, Waterhemp",waterhemp; [8],100
same,Velvetleaf plant response rating,velvetleaf; [5],5
same,Velvetleaf plant response rating,velvetleaf; [6],40
same,Velvetleaf plant response rating,velvetleaf; [7],85
same,"Plant response rating, Velvetleaf",velvetleaf; [8],45
same,Morningglory plant response rating,morningglory; [5],5
same,Morningglory plant response rating,morningglory; [6],50
same,Morningglory plant response rating,morningglory; [7],80
same,"Plant response rating, Morningglory",morningglory; [8],50
same,Lambsquarters plant response rating,lambsquarters; [6],30
same,Lambsquarters plant response rating,lambsquarters; [7],85
same,"Plant response rating, Lambsquarters",lambsquarters; [8],85
same,Ragweed plant response rating,ragweed; 125 g ai/ha,60
same,"Plant response rating, Ragweed",ragweed; 500 g ai/ha,100
same,Pigweed plant response rating,pigweed; [5],50
same,Pigweed plant response rating,pigweed; [6],85
same,Pigweed plant response rating,pigweed; [7],98
same,"Plant response rating, Pigweed",pigweed; [8],80
same,Barnyardgrass plant response rating,barnyardgrass; [5],0
same,Barnyardgrass plant response rating,barnyardgrass; [6],0
same,Barnyardgrass plant response rating,barnyardgrass; [7],60
same,"Plant response rating, Barnyardgrass",barnyardgrass; [8],15
same,"Nutsedge, Yellow plant response rating",yellow nutsedge; [5],0
same,"Nutsedge, Yellow plant response rating",yellow nutsedge; [6],0
same,"Nutsedge, Yellow plant response rating",yellow nutsedge; [7],15
same,"Plant response rating, Nutsedge, Yellow",yellow nutsedge; [8],0
same,Blackgrass plant response rating,blackgrass [3]; 125 g ai/ha,30
same,"Plant response rating, Blackgrass",blackgrass [3]; 500 g ai/ha,90
same,"Ryegrass, Italian plant response rating",Italian ryegrass [4]; 125 g ai/ha,20
same,"Plant response rating, Ryegrass, Italian",Italian ryegrass [4]; 500 g ai/ha,70
same,Soybean plant response rating,soybean; [5],10
same,Soybean plant response rating,soybean; [6],20
same,Soybean plant response rating,soybean; [7],85
same,"Plant response rating, Soybean",soybean; [8],65
